# Reference: ChEMBL document CHEMBL1145401, “Design and synthesis of classical and nonclassical 6-arylthio-2,4-diamino-5-ethylpyrrolo[2,3-d]pyrimidines as antifolates” (J Med Chem, 2007)
# Experiments:
# [1] = target: T1, Dihydrofolate reductase (Homo sapiens, UniProt P00374)
# [2] = target: T2, Dihydrofolate reductase (Pneumocystis carinii, UniProt P16184)
# T2 sequence (P16184 whole entry): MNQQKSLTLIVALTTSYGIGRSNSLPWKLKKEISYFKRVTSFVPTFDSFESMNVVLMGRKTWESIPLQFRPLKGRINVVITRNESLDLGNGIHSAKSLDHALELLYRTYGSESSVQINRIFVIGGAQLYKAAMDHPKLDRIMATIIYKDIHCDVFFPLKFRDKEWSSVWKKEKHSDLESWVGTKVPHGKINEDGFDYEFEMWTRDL
# Description: Inhibition of Pneumocystis carinii DHFR
# [3] = target: T3, Dihydrofolate reductase (Mycobacterium avium, UniProt O30463)
# T3 sequence (O30463 whole entry): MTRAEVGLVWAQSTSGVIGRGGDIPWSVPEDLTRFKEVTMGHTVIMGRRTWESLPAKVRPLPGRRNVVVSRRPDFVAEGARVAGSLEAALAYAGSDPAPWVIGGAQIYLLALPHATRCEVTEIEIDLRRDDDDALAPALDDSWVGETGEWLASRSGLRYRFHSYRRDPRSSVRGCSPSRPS
# Description: Inhibition of Mycobacterium avium DHFR
# [4] = target: T4, Dihydrofolate reductase (Rattus norvegicus, UniProt Q920D2)
# T4 sequence (Q920D2 whole entry): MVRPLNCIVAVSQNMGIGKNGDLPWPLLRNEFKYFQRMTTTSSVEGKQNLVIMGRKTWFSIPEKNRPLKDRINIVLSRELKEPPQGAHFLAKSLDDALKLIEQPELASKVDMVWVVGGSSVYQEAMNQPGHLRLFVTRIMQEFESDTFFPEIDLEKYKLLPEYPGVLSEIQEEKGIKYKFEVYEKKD
# Description: Inhibition of rat liver DHFR
# [5] = target: T1, Dihydrofolate reductase; test: Inhibition of human DHFR relative to control; details: concentration not given here
# [6] = Selectivity ratio of IC50 for rat liver DHFR to IC50 for Pneumocystis carinii DHFR
# [7] = Selectivity ratio of IC50 for rat liver DHFR to IC50 for Mycobacterium avium DHFR
# [8] = target: T5, Bifunctional dihydrofolate reductase-thymidylate synthase (Toxoplasma gondii, UniProt Q07422)
# T5 sequence (Q07422 whole entry): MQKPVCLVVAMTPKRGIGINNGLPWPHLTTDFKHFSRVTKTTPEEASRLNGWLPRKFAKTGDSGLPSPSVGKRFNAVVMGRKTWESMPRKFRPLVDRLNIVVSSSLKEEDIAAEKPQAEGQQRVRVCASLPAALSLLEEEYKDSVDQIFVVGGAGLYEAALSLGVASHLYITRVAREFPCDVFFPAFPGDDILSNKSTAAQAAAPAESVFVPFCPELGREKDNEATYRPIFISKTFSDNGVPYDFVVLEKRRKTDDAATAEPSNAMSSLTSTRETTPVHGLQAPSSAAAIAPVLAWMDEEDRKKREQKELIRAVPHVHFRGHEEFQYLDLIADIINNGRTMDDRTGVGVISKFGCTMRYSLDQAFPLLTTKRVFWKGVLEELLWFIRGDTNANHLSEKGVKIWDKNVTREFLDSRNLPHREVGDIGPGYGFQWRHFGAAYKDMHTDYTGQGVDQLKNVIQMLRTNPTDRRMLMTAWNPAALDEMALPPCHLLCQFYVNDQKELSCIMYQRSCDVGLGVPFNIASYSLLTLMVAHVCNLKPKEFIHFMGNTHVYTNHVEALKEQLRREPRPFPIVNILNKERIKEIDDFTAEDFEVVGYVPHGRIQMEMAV
# Description: Inhibition of Toxoplasma gondii DHFR
# [9] = Inhibition of Escherichia coli DHFR
# [10] = Selectivity ratio of IC50 for human DHFR to IC50 for Escherichia coli DHFR
# [11] = system: CCRF-CEM; test: Effect on growth of human CCRF-CEM cells at 40 nM in presence of 10 uM deoxycytidine relative to control; type: functional
# [12] = system: CCRF-CEM; test: Effect on growth of human CCRF-CEM cells at 40 nM in presence of 10 uM deoxycytidine, 5 uM thymidine relative to control; type: functional
# [13] = system: CCRF-CEM; test: Effect on growth of human CCRF-CEM cells at 40 nM in presence of 10 uM deoxycytidine, 10 uM hypoxanthine relative to control; type: functional
# [14] = system: CCRF-CEM; test: Effect on growth of human CCRF-CEM cells at 40 nM in presence of 10 uM deoxycytidine, 5 uM thymidine and 10 uM hypoxanthine relative to control; type: functional
# [15] = system: CCRF-CEM; test: Cytotoxicity against CCRF-CEM cells; type: functional; details: Homo sapiens
# [16] = system: K562; test: Cytotoxicity against K562 cells; type: functional; details: Homo sapiens
# [17] = system: MOLT-4; test: Cytotoxicity against MOLT4 cells; type: functional; details: Homo sapiens
# [18] = system: RPMI-8226; test: Cytotoxicity against RPMI8226 cells; type: functional; details: Homo sapiens
# [19] = system: SR; test: Cytotoxicity against SR cells; type: functional; details: Homo sapiens
# [20] = system: NCI-H460; test: Cytotoxicity against NCI-H460 cells; type: functional; details: Homo sapiens
# [21] = system: HT-29; test: Cytotoxicity against HT29 cells; type: functional; details: Homo sapiens
# [22] = system: SW-620; test: Cytotoxicity against SW620 cells; type: functional; details: Homo sapiens
# [23] = system: U-251; test: Cytotoxicity against U251 cells; type: functional; details: Homo sapiens
# [24] = system: LOX IMVI; test: Cytotoxicity against LOX IMVI cells; type: functional; details: Homo sapiens
# [25] = system: PC-3; test: Cytotoxicity against PC3 cells; type: functional; details: Homo sapiens
# [26] = target: Dihydrofolate reductase (Pneumocystis carinii) (UniProt P16184); details: 20 uM
# Description: Inhibition of Pneumocystis carinii DHFR at 20 uM
Structure (SMILES),IC50 [1] [nM],IC50 [2] [µM],IC50 [3] [nM],IC50 [4] [µM],inhibition [5] [%],Ratio IC50 [6],Ratio IC50 [7],IC50 [8] [nM],IC50 [9] [nM],Ratio IC50 [10],also measured
CCc1c(Sc2cccc3cccnc23)[nH]c2nc(N)nc(N)c12,1400,9.58,110,3.55,–,–,–,–,–,–,–
CCc1c(Sc2ccc(Cl)cc2)[nH]c2nc(N)nc(N)c12,> 31000,11.9,700,5.48,36,0.5,7.8,1540,–,–,–
CCc1c(Sc2ccc(Cl)cc2Cl)[nH]c2nc(N)nc(N)c12,1400,7.19,350,1.17,–,0.2,3.3,220,140,10,–
CN(Cc1cnc2nc(N)nc(N)c2n1)c1ccc(C(=O)N[C@@H](CCC(=O)O)C(=O)O)cc1 [METHOTREXATE],–,–,–,–,–,–,–,–,–,–,Activity [11]: 11%; Activity [12]: 13%; Activity [13]: 14%; Activity [14]: 74%
CCc1c(Sc2cccc(OC)c2)[nH]c2nc(N)nc(N)c12,> 32000,28.3,770,31,35,1.1,40.5,1090,320,> 100,–
CCc1c(Sc2cccc3ccccc23)[nH]c2nc(N)nc(N)c12,2900,18.4,19800,40.1,–,–,–,3150,–,–,–
CCc1c(Sc2cccc(Cl)c2)[nH]c2nc(N)nc(N)c12,> 31000,4.02,420,6.33,30,1.6,15.1,500,160,> 194,–
Cc1nc(N)c2c(C)c(Sc3ccc(C(=O)N[C@@H](CCC(=O)O)C(=O)O)cc3)[nH]c2n1,–,–,–,–,–,–,–,–,–,–,GI50 [15]: 220 nM; GI50 [16]: 27 nM; GI50 [17]: < 10 nM; GI50 [18]: < 10 nM; GI50 [19]: > 100 nM; GI50 [20]: 630 nM; GI50 [21]: 160 nM; GI50 [22]: 120 nM; GI50 [23]: 820 nM; GI50 [24]: 170 nM; GI50 [25]: 440 nM
Cc1c(Sc2ccc3ccccc3c2)[nH]c2nc(N)nc(N)c12,–,–,700,–,–,0.1,6.5,160,–,–,–
Cc1c(Sc2ccc(Cl)c(Cl)c2)[nH]c2nc(N)nc(N)c12,–,–,19000,110,–,9.1,5.8,20000,–,–,inhibition [26]: 14%
